pIC50: −log10 of the molar value.

This passage reports melting point and IC50 results from US8906909B2 (Curis, Inc., priority 2009, dated 2014).

The test system of series [1] is HDACs (HeLa cell nuclear extracts). Nature of the series: HDAC enzymatic activity, Biomol Color de Lys system. Format: biochemical. The method, boiled down: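 IC50 from sigmoidal dose-response fits of fluorescence (Ex 350–380, Em 440–460 nm). Compounds in DMSO dilution series incubated 1 h at 25 °C with HeLa nuclear extract HDACs and colorimetric substrate, pH 8.0 Tris/Cl buffer with NaCl, KCl, MgCl2, before developer termination.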

Compound `CN(Cc1cc2nc(-c3cccc4c3CCN4)nc(N3CCOCC3)c2s1)c1ncc(C(=O)NO)cn1` [Compound 177, N-hydroxy-2-(((2-(indolin-4-yl)-4-morpholinothieno[3,2-d]pyrimidin-6-yl)methyl)(methyl)amino)pyrimidine-5-carboxamide] showed a melting point of 146 to 156 °C. The same compound showed a negative logarithm of the IC50 (pIC50) in series [1] greater than 7.00.

Take `O=C(CCCCCCN1CCN(Cc2cc3nc(-c4cccc5[nH]ncc45)nc(N4CCOCC4)c3s2)CC1)NO` [Compound 13, 7-(4-((2-(1H-indazol-4-yl)-4-morpholinothieno[3,2-d]pyrimidin-6-yl)methyl)piperazin-1-yl)-N-hydroxyheptanamide]: the melting point is 119 to 122 °C. This compound also had a pIC50 in series [1] of 6.00 to 7.00.

In the case of `CN(Cc1cc2nc(-c3ccc(Cl)cc3)nc(N3CCOCC3)c2s1)c1ncc(C(=O)NO)cn1` [Compound 147, 2-(((2-(4-chlorophenyl)-4-morpholinothieno[3,2-d]pyrimidin-6-yl)methyl)(methyl)amino)-N-hydroxypyrimidine-5-carboxamide], the melting point is 153 °C. Further, in series [1], the pIC50 is greater than 7.00.

The compound `O=C(NO)c1cnc(N2CCN(Cc3cc4nc(-c5cccc6[nH]ncc56)nc(N5CCOCC5)c4s3)CC2)nc1` [Compound 14, 2-(4-((2-(1H-indazol-4-yl)-4-morpholinothieno[3,2-d]pyrimidin-6-yl)methyl)piperazin-1-yl)-N-hydroxypyrimidine-5-carboxamide] came in with a melting point of 209 to 221 °C. In series [1], this compound gave a pIC50 greater than 7.00.

In the case of `CN(Cc1cc2nc(-c3ccc(N)c(N)c3)nc(N3CCOCC3)c2s1)c1ncc(C(=O)NO)cn1` [Compound 156, 2-(((2-(3,4-diaminophenyl)-4-morpholinothieno[3,2-d]pyrimidin-6-yl)methyl)(methyl)amino)-N-hydroxypyrimidine-5-carboxamide], the melting point was in the range of 222 to 225 °C. The compound also gave a pIC50 in series [1] greater than 7.00.

`CN(Cc1cc2nc(-c3ccc(C(N)=O)cc3)nc(N3CCOCC3)c2s1)c1ncc(C(=O)NO)cn1` [Compound 143, 2-(((2-(4-carbamoylphenyl)-4-morpholinothieno[3,2-d]pyrimidin-6-yl)methyl)(methyl)amino)-N-hydroxypyrimidine-5-carboxamide] gave a melting point of 200 to 202 °C. Further, the pIC50 in series [1] was greater than 7.00.

In turn, `CNC(=O)c1cccc(-c2nc(N3CCOCC3)c3sc(CN(C)c4ncc(C(=O)NO)cn4)cc3n2)c1` [Compound 144, N-hydroxy-2-(methyl((2-(3-(methylcarbamoyl)phenyl)-4-morpholinothieno[3,2-d]pyrimidin-6-yl)methyl)amino)pyrimidine-5-carboxamide] displayed a melting point of 215 to 217 °C. The compound also gave a pIC50 in series [1] greater than 7.00.

`O=C(NO)c1cnc(N2CCC(CNCc3cc4nc(-c5cccc6[nH]ncc56)nc(N5CCOCC5)c4s3)CC2)nc1` [Compound 15, 2-(4-(((2-(1H-indazol-4-yl)-4-morpholinothieno[3,2-d]pyrimidin-6-yl)methylamino)methyl)piperidin-1-yl)-N-hydroxypyrimidine-5-carboxamide] registered a melting point of 170 to 172 °C. The pIC50 in series [1] was greater than 7.00.

For the compound `CN(Cc1cc2nc(-c3cccc(CN)c3)nc(N3CCOCC3)c2s1)c1ncc(C(=O)NO)cn1` [Compound 137, 2-(((2-(3-(aminomethyl)phenyl)-4-morpholinothieno[3,2-d]pyrimidin-6-yl)methyl)(methyl)amino)-N-hydroxypyrimidine-5-carboxamide], the melting point lay within 173 to 176 °C. Moreover, the pIC50 in series [1] is greater than 7.00.

The compound `CN(CCCCCCC(=O)NO)Cc1cc2nc(-c3cccc4[nH]ncc34)nc(N3CCOCC3)c2s1` [Compound 104, 7-(((2-(1H-indazol-4-yl)-4-morpholinothieno[3,2-d]pyrimidin-6-yl)methyl)(methyl)amino)-N-hydroxyheptanamide] showed a melting point of 131 to 133 °C. For the same compound, in series [1], the negative-log IC50 (pIC50) is 6.00 to 7.00.

The compound `Nc1ncc(-c2nc(N3CCOCC3)c3sc(NCCCCCC(=O)NO)cc3n2)cn1` [Compound 232, 6-[2-(2-Amino-pyrimidin-5-yl)-4-morpholin-4-yl-thieno[3,2-d]pyrimidin-6-ylamino]-hexanoic acid hydroxyamide] showed a melting point of 220 to 225 °C. This compound also gave a pIC50 in series [1] greater than 7.00.

Take `COc1ccc(-c2nc(N3CCOCC3)c3sc(NCCCCCC(=O)NO)cc3n2)cn1` [Compound 233, 6-[2-(6-Methoxy-pyridin-3-yl)-4-morpholin-4-yl-thieno[3,2-d]pyrimidin-6-ylamino]-hexanoic acid hydroxyamide]: the melting point is 125 to 130 °C. For the same compound, the pIC50 in series [1] was greater than 7.00.

`Nc1ccc(-c2nc(N3CCOCC3)c3sc(C(=O)NCC4CCN(c5ncc(C(=O)NO)cn5)CC4)cc3n2)cc1` [Compound 307, 2-(4-Aminophenyl)-N-((1-(5-(hydroxycarbamoyl)pyrimidin-2-yl)piperidin-4-yl)methyl)-4-morpholinothieno[3,2-d]pyrimidine-6-carboxamide] displayed a melting point of 232 to 238 °C. Further, the pIC50 in series [1] was greater than 7.00.

Compound `CN(C)c1cccc(-c2nc(N3CCOCC3)c3sc(CN(C)c4ncc(C(=O)NO)cn4)cc3n2)c1` [Compound 108, 2-(((2-(3-(dimethylamino)phenyl)-4-morpholinothieno[3,2-d]pyrimidin-6-yl)methyl)(methyl)amino)-N-hydroxypyrimidine-5-carboxamide] yielded a melting point of 172 to 175 °C. The compound further had a pIC50 in series [1] greater than 7.00.

The compound `CN(C)c1ccc(-c2nc(N3CCOCC3)c3sc(CN(C)c4ncc(C(=O)NO)cn4)cc3n2)cc1` [Compound 152, 2-(((2-(4-(dimethylamino)phenyl)-4-morpholinothieno[3,2-d]pyrimidin-6-yl)methyl)(methyl)amino)-N-hydroxypyrimidine-5-carboxamide] registered a melting point of 208 to 210 °C. In series [1], this compound showed a pIC50 greater than 7.00.

As for `CN(Cc1cc2nc(-c3cccc4[nH]ncc34)nc(N3CCOCC3)c2s1)CC1CCN(c2ncc(C(=O)NO)cn2)CC1` [Compound 16, 2-(4-((((2-(1H-indazol-4-yl)-4-morpholinothieno[3,2-d]pyrimidin-6-yl)methyl)(methyl)amino)methyl)piperidin-1-yl)-N-hydroxypyrimidine-5-carboxamide], the melting point fell in the range of 174 to 175 °C. In series [1], this compound gave a pIC50 of 6.00 to 7.00.

`CCOc1ccc(-c2nc(N3CCOCC3)c3sc(CN(C)c4ncc(C(=O)NO)cn4)cc3n2)cn1` [Compound 255, 2-(((2-(6-ethoxypyridin-3-yl)-4-morpholinothieno[3,2-d]pyrimidin-6-yl)methyl)(methyl)amino)-N-hydroxypyrimidine-5-carboxamide] showed a melting point of 162 to 165 °C. In series [1], this compound gave a pIC50 greater than 7.00.

`CN(Cc1cc2nc(-c3ccc(CO)cc3)nc(N3CCOCC3)c2s1)c1ncc(C(=O)NO)cn1` [Compound 140, N-hydroxy-2-(((2-(4-(hydroxymethyl)phenyl)-4-morpholinothieno[3,2-d]pyrimidin-6-yl)methyl)(methyl)amino)pyrimidine-5-carboxamide] showed a melting point of 218 to 223 °C. This compound had a negative logarithm of the IC50 (pIC50) in series [1] greater than 7.00.

Compound `CN(Cc1cc2nc(-c3cnc(CN)nc3)nc(N3CCOCC3)c2s1)c1ncc(C(=O)NO)cn1` [Compound 124, 2-(((2-(2-(aminomethyl)pyrimidin-5-yl)-4-morpholinothieno[3,2-d]pyrimidin-6-yl)methyl)(methyl)amino)-N-hydroxypyrimidine-5-carboxamide] displayed a melting point greater than 300 °C. In addition, in series [1], the pIC50 was greater than 7.00.

`CN(Cc1cc2nc(-c3ccccc3CO)nc(N3CCOCC3)c2s1)c1ncc(C(=O)NO)cn1` [Compound 141, N-hydroxy-2-(((2-(2-(hydroxymethyl)phenyl)-4-morpholinothieno[3,2-d]pyrimidin-6-yl)methyl)(methyl)amino)pyrimidine-5-carboxamide] gave a melting point of 173 to 176 °C. In series [1], the pIC50 is greater than 7.00.

The compound `CN(Cc1cc2nc(-c3cccc4[nH]ccc34)nc(N3CCOCC3)c2s1)c1ncc(C(=O)NO)cn1` [Compound 176, 2-(((2-(1H-indol-4-yl)-4-morpholinothieno[3,2-d]pyrimidin-6-yl)methyl)(methyl)amino)-N-hydroxypyrimidine-5-carboxamide] came in with a melting point of 200 to 212 °C. The pIC50 in series [1] was greater than 7.00.

On to `O=C(CCCCCCNCc1cc2nc(-c3cccc4[nH]ncc34)nc(N3CCOCC3)c2s1)NO` [Compound 44, 7-((2-(1H-indazol-4-yl)-4-morpholinothieno[3,2-d]pyrimidin-6-yl)methylamino)-N-hydroxyheptanamide], for which the melting point is 188 to 190 °C. Besides, the pIC50 in series [1] was 6.00 to 7.00.

In turn, `Nc1ncc(-c2nc(N3CCOCC3)c3sc(NS(=O)(=O)c4ccc(/C=C/C(=O)NO)cc4)cc3n2)cn1` [Compound 217, (E)-3-(4-(N-(2-(2-aminopyrimidin-5-yl)-4-morpholinothieno[3,2-d]pyrimidin-6-yl)sulfamoyl)phenyl)-N-hydroxyacrylamide] came in with a melting point greater than 300 °C. The compound further gave a pIC50 in series [1] greater than 7.00.

`CN(Cc1cc2nc(-c3ccc(S(C)(=O)=O)cc3)nc(N3CCOCC3)c2s1)c1ncc(C(=O)NO)cn1` [Compound 149, N-hydroxy-2-(methyl((2-(4-(methylsulfonyl)phenyl)-4-morpholinothieno[3,2-d]pyrimidin-6-yl)methyl)amino)pyrimidine-5-carboxamide] yielded a melting point of 206 to 208 °C. In series [1], the pIC50 was greater than 7.00.

For `CCCN(Cc1cc2nc(-c3cccc4[nH]ncc34)nc(N3CCOCC3)c2s1)c1ncc(C(=O)NO)cn1` [Compound 84, 2-(((2-(1H-indazol-4-yl)-4-morpholinothieno[3,2-d]pyrimidin-6-yl)methyl)(propyl)amino)-N-hydroxypyrimidine-5-carboxamide], the melting point was 224 to 226 °C. The compound further showed a pIC50 in series [1] greater than 7.00.

The term melting point denotes the temperature, or range, at which the solid turns liquid. As usually defined, the pIC50 is −log10 of the IC50, conventionally taken in molar units. A low value points to a large IC50.
